The source made the active and inactive calls. No rule for the calls is given here.
System: CCRIS mutagenicity, Ames/micronucleus/aberration tests
Test: CCRIS mutagenicity studies
[1] = Test System: AMES SALMONELLA TYPHIMURIUM, Strain/Indicator: TA98, Metabolic Activation: NONE, Method: PREINCUBATION
[2] = Test System: AMES SALMONELLA TYPHIMURIUM, Strain/Indicator: TA100, Metabolic Activation: NONE, Method: PREINCUBATION
[3] = Test System: AMES SALMONELLA TYPHIMURIUM, Strain/Indicator: TA1535, Metabolic Activation: NONE, Method: PREINCUBATION
[4] = Test System: AMES SALMONELLA TYPHIMURIUM, Strain/Indicator: TA1537, Metabolic Activation: NONE, Method: PREINCUBATION
[5] = Test System: AMES SALMONELLA TYPHIMURIUM, Strain/Indicator: TA98, Metabolic Activation: HAMSTER, LIVER, S-9, AROCLOR 1254 (10%), Method: PREINCUBATION
[6] = Test System: AMES SALMONELLA TYPHIMURIUM, Strain/Indicator: TA98, Metabolic Activation: RAT, LIVER, S-9, AROCLOR 1254 (10%), Method: PREINCUBATION
[7] = Test System: AMES SALMONELLA TYPHIMURIUM, Strain/Indicator: TA100, Metabolic Activation: HAMSTER, LIVER, S-9, AROCLOR 1254 (10%), Method: PREINCUBATION
[8] = Test System: AMES SALMONELLA TYPHIMURIUM, Strain/Indicator: TA100, Metabolic Activation: RAT, LIVER, S-9, AROCLOR 1254 (10%), Method: PREINCUBATION
[9] = Test System: AMES SALMONELLA TYPHIMURIUM, Strain/Indicator: TA1535, Metabolic Activation: HAMSTER, LIVER, S-9, AROCLOR 1254 (10%), Method: PREINCUBATION
[10] = Test System: AMES SALMONELLA TYPHIMURIUM, Strain/Indicator: TA1535, Metabolic Activation: RAT, LIVER, S-9, AROCLOR 1254 (10%), Method: PREINCUBATION
[11] = Test System: AMES SALMONELLA TYPHIMURIUM, Strain/Indicator: TA1537, Metabolic Activation: HAMSTER, LIVER, S-9, AROCLOR 1254 (10%), Method: PREINCUBATION
[12] = Test System: AMES SALMONELLA TYPHIMURIUM, Strain/Indicator: TA1537, Metabolic Activation: RAT, LIVER, S-9, AROCLOR 1254 (10%), Method: PREINCUBATION
[13] = Test System: AMES SALMONELLA TYPHIMURIUM, Strain/Indicator: TA98, Metabolic Activation: NONE, Method: STANDARD PLATE
[14] = Test System: AMES SALMONELLA TYPHIMURIUM, Strain/Indicator: TA98, Metabolic Activation: RAT, LIVER, S-9, AROCLOR 1254, Method: STANDARD PLATE
[15] = Test System: AMES SALMONELLA TYPHIMURIUM, Strain/Indicator: TA100, Metabolic Activation: NONE, Method: STANDARD PLATE
[16] = Test System: AMES SALMONELLA TYPHIMURIUM, Strain/Indicator: TA100, Metabolic Activation: RAT, LIVER, S-9, AROCLOR 1254, Method: STANDARD PLATE

CC[C@H]1OC(=O)[C@H](C)[C@@H](O[C@H]2C[C@@](C)(OC)[C@@H](O)[C@H](C)O2)[C@H](C)[C@@H](O[C@@H]2O[C@H](C)C[C@H](N(C)C)[C@H]2O)[C@](C)(O)C[C@@H](C)C(=O)[C@H](C)[C@@H](O)[C@]1(C)O
mutagenic call (End Point: AMES SALMONELLA TYPHIMURIUM, Test System: TA98, Metabolic Activation: NONE, Method: STANDARD PLATE): inactive; negative | mutagenic call (End Point: AMES SALMONELLA TYPHIMURIUM, Test System: TA100, Metabolic Activation: NONE, Method: STANDARD PLATE): inactive; negative | mutagenic call (End Point: IN VITRO CHROMOSOMAL ABERRATIONS, Test System: CHO CELLS, Metabolic Activation: NONE): inactive; negative; testing limited by solubility of the chemical | mutagenic call (End Point: IN VITRO CHROMOSOMAL ABERRATIONS, Test System: CHO CELLS, Metabolic Activation: RAT, LIVER, S-9, AROCLOR 1254): inactive; negative; testing limited by solubility of the chemical | mutagenic call (Test System: AMES SALMONELLA TYPHIMURIUM, Strain/Indicator: TA98, Metabolic Activation: HAMSTER, LIVER, S-9, AROCLOR 1254, Method: PREINCUBATION): inactive; negative | mutagenic call [1]: inactive; negative | mutagenic call (Test System: AMES SALMONELLA TYPHIMURIUM, Strain/Indicator: TA98, Metabolic Activation: RAT, LIVER, S-9, AROCLOR 1254, Method: PREINCUBATION): inactive; negative | mutagenic call (Test System: AMES SALMONELLA TYPHIMURIUM, Strain/Indicator: TA100, Metabolic Activation: HAMSTER, LIVER, S-9, AROCLOR 1254, Method: PREINCUBATION): inactive; negative | mutagenic call [2]: inactive; negative | mutagenic call (Test System: AMES SALMONELLA TYPHIMURIUM, Strain/Indicator: TA100, Metabolic Activation: RAT, LIVER, S-9, AROCLOR 1254, Method: PREINCUBATION): inactive; negative | mutagenic call (Test System: AMES SALMONELLA TYPHIMURIUM, Strain/Indicator: TA1535, Metabolic Activation: HAMSTER, LIVER, S-9, AROCLOR 1254, Method: PREINCUBATION): inactive; negative | mutagenic call [3]: inactive; negative | mutagenic call (Test System: AMES SALMONELLA TYPHIMURIUM, Strain/Indicator: TA1535, Metabolic Activation: RAT, LIVER, S-9, AROCLOR 1254, Method: PREINCUBATION): inactive; negative | mutagenic call (Test System: AMES SALMONELLA TYPHIMURIUM, Strain/Indicator: TA1537, Metabolic Activation: HAMSTER, LIVER, S-9, AROCLOR 1254, Method: PREINCUBATION): inactive; negative | mutagenic call [4]: inactive; negative | mutagenic call (Test System: AMES SALMONELLA TYPHIMURIUM, Strain/Indicator: TA1537, Metabolic Activation: RAT, LIVER, S-9, AROCLOR 1254, Method: PREINCUBATION): inactive; negative | mutagenic call (Test System: MOUSE LYMPHOMA, Strain/Indicator: L5178Y (TK+/TK-), Metabolic Activation: RAT, LIVER, S-9, AROCLOR 1254, Method: SUSPENSION/PLATE): inactive; negative

CCCCC(CC)COP(=O)(Oc1ccccc1)Oc1ccccc1 (centres undefined)
mutagenic call [5]: inactive; negative | mutagenic call [1]: inactive; negative | mutagenic call [6]: inactive; negative | mutagenic call [7]: inactive; negative | mutagenic call [2]: inactive; negative | mutagenic call [8]: inactive; negative | mutagenic call [9]: inactive; negative | mutagenic call [3]: inactive; negative | mutagenic call [10]: inactive; negative | mutagenic call [11]: inactive; negative | mutagenic call [4]: inactive; negative | mutagenic call [12]: inactive; negative

O=[N+]([O-])c1ccc2c(c1)-c1nc3ccccc3c3c1c-2nc1ccccc13
mutagenic call [13]: active; positive | mutagenic call (Test System: AMES SALMONELLA TYPHIMURIUM, Strain/Indicator: TA98, Metabolic Activation: RAT LIVER S-9, AROCLOR 1254, Method: STANDARD PLATE): active; positive | mutagenic call (Test System: ESCHERICHIA COLI, Strain/Indicator: WP2 UVR A, Metabolic Activation: NONE, Method: STANDARD PLATE): inactive; negative | mutagenic call (Test System: ESCHERICHIA COLI, Strain/Indicator: WP2 UVR A, Metabolic Activation: RAT LIVER S-9, AROCLOR 1254, Method: STANDARD PLATE): inactive; negative

ClC(Cl)=Cc1c(Cl)c(Cl)c(Cl)c(Cl)c1Cl
mutagenic call [13]: inactive; negative | mutagenic call [14]: inactive; negative | mutagenic call [15]: inactive; negative | mutagenic call [16]: inactive; negative

C=C(C)C(=O)OCC
mutagenic call [5]: inactive; negative | mutagenic call [1]: inactive; negative | mutagenic call [13]: inactive; negative | mutagenic call [6]: inactive; negative | mutagenic call [14]: inactive; negative | mutagenic call (Test System: AMES SALMONELLA TYPHIMURIUM, Strain/Indicator: TA98, Metabolic Activation: RAT, LIVER, S-9, SODIUM PHENOBARBITAL, Method: STANDARD PLATE): inactive; negative | mutagenic call [7]: inactive; negative | mutagenic call [2]: inactive; negative | mutagenic call [15]: inactive; negative | mutagenic call [8]: inactive; negative | mutagenic call [16]: inactive; negative | mutagenic call (Test System: AMES SALMONELLA TYPHIMURIUM, Strain/Indicator: TA100, Metabolic Activation: RAT, LIVER, S-9, SODIUM PHENOBARBITAL, Method: STANDARD PLATE): inactive; negative | mutagenic call [9]: inactive; negative | mutagenic call [3]: inactive; negative | mutagenic call (Test System: AMES SALMONELLA TYPHIMURIUM, Strain/Indicator: TA1535, Metabolic Activation: NONE, Method: STANDARD PLATE): inactive; negative | mutagenic call [10]: inactive; negative | mutagenic call (Test System: AMES SALMONELLA TYPHIMURIUM, Strain/Indicator: TA1535, Metabolic Activation: RAT, LIVER, S-9, AROCLOR 1254, Method: STANDARD PLATE): inactive; negative | mutagenic call (Test System: AMES SALMONELLA TYPHIMURIUM, Strain/Indicator: TA1535, Metabolic Activation: RAT, LIVER, S-9, SODIUM PHENOBARBITAL, Method: STANDARD PLATE): inactive; negative | mutagenic call [11]: inactive; negative | mutagenic call [4]: inactive; negative | mutagenic call (Test System: AMES SALMONELLA TYPHIMURIUM, Strain/Indicator: TA1537, Metabolic Activation: NONE, Method: STANDARD PLATE): inactive; negative | mutagenic call [12]: inactive; negative | mutagenic call (Test System: AMES SALMONELLA TYPHIMURIUM, Strain/Indicator: TA1537, Metabolic Activation: RAT, LIVER, S-9, AROCLOR 1254, Method: STANDARD PLATE): inactive; negative | mutagenic call (Test System: AMES SALMONELLA TYPHIMURIUM, Strain/Indicator: TA1537, Metabolic Activation: RAT, LIVER, S-9, SODIUM PHENOBARBITAL, Method: STANDARD PLATE): inactive; negative | mutagenic call (Test System: AMES SALMONELLA TYPHIMURIUM, Strain/Indicator: TA1538, Metabolic Activation: NONE, Method: STANDARD PLATE): inactive; negative | mutagenic call (Test System: AMES SALMONELLA TYPHIMURIUM, Strain/Indicator: TA1538, Metabolic Activation: RAT, LIVER, S-9, AROCLOR 1254, Method: STANDARD PLATE): inactive; negative | mutagenic call (Test System: AMES SALMONELLA TYPHIMURIUM, Strain/Indicator: TA1538, Metabolic Activation: RAT, LIVER, S-9, SODIUM PHENOBARBITAL, Method: STANDARD PLATE): inactive; negative
